In patent publication US20190224279A1, “PHARMACEUTICAL ASSOCIATION COMPRISING A GROWTH FACTOR RECEPTOR AGONIST CONJUGATED TO A BIOACTIVE CARRIER FOR CONVERTING A NEOPLASTIC CELL INTO A NON-NEOPLASTIC CELL AND USES THEREOF” (HISTIDE AG, priority 2015, published 2019):

How the values were obtained:
[1] = tested on: Smad1/5/8 signaling pathway; assay: Growth factor receptor activation: quantification of western blots of phospho-Smad1/5/8; format: cell-based; settings: human osteosarcoma cells MG63; 400 ng/mL GFR-binding compound; Table 4
Experimental: After 24 hours of culture, cells were permeabilized (10% SDS, 25 mM NaCl, 10 nM pepstatin and 10 nM leupeptin in distilled water and loading buffer), boiled for 10 minutes and resolved by reducing PAGE (Invitrogen). Proteins were transferred onto nitrocellulose, blocked, and labeled with HRP-conjugated antibodies (Invitrogen). Integrin αv, α5, α3, α4, β1, β, β5 and […] were blotted by treating the nitrocellulose with monoclonal anti-integrin (extracellular domain) αv, α5, α3, α4, β1, β3, β5 and β6 antibodies (Santa Cruz Biotechnology). Phosphor-Smad1/5/8 was blotted by treating the nitrocellulose with monoclonal anti-p-Smad1/5/8 (Santa Cruz Biotechnology). For all of the experiments the western blot was performed in triplicate, along with an additional blot for actin and coomassie blue staining to ensure constant protein load among samples.

[2] = tested on: human osteosarcoma cells, MG63; assay: Tumor cell recoding via quantification of pRB (immunofluorescence, ImageJ); format: cell-based
Experimental: The cells were first fixed for 20 min with 4% paraformaldehyde/PBS at 4° C. After fixation, the cells were permeabilized in PBS containing 1% Triton X-100 for 15 min. Protein immunofluorescent visualization was performed by first treating the cells with 1% (v/v) specific monoclonal antibodies for 1 hour at 37° C. Then the samples were incubated with Alexa Fluor® 568 or 647 (F(ab′)2 fragment of IgG(H+L)) during 30 min at room temperature. The cell nuclei were counterstained in 20 ng/mL DAPI for 10 min at room temperature.
For this type of quantification the freeware image analysis ImageJ® software was used. The raw image was first converted to an 8-bit file, and then the unsharp mask feature was used (settings 1:0.2) to remove the image background (rolling ball radius 10). After smoothing, the resulting image, which appears similar to the original photomicrograph but with minimal background, was then converted to a binary image by setting a threshold. Threshold values were determined empirically by selecting a setting, which gave the most accurate binary image for a subset of randomly selected photomicrographs. The cell area was determined by manual delineation on raw fluorescent images. Total contact area and mean contact area per cell were calculated by “analyse particules” in ImageJ®. A minimum of 50 cells per condition were analyzed.
Neoplastic cells (in this example osteosarcoma cells) were cultured on pharmaceutical associations comprising PET as a bioactive carrier and one of GFR-binding compounds of SEQ ID NO: 11 to 14, 24 to 26 and 51 to 63. A rapid (24 hours) decrease of the tumor markers was observed (FIG. 7). The adhesion checkpoint then activates the tumor suppressor proteins p53 and pRB. […]

Sequence | p-Smad1/5/8 (%) [1] | pRB (%) ([2]; Table 4) | pRB (%) ([2]; Table 5)
APTKLEPLPMVYYEERRNVIEQLSNNMVVR (Non-cyclic GFR-binding peptide) [SEQ ID NO: 86] | 34% | 11% | 11%
APTKLEPLTIVYYDDSSNVIEQLSNNMVVR (Non-cyclic GFR-binding peptide) [SEQ ID NO: 88] | 32% | 21% | 21%
APTQLSAISTLYLEIVRKKPLKNYQEMEDH (Non-cyclic GFR-binding peptide) [SEQ ID NO: 78] | 58% | 20% | 20%
APTQLSAISTLYLEIVRKKPLKNYQFLQHNK (Non-cyclic GFR-binding peptide) [SEQ ID NO: 77] | 52% | 14% | 14%
ASASPSSVPQDLEPLTILYYVGRTPKVEQLSNMV (Non-cyclic GFR-binding peptide) [SEQ ID NO: 65] | 38% | 18% | 18%
ASASPSSVPQDLEPLTILYYVGRTPKVEQLSNMVEDH (Non-cyclic GFR-binding peptide) [SEQ ID NO: 80] | 34% | 17% | 17%
NDEGLECVPTEERPVQVRKIRIKPHQGQKKATVFLQHNK [SEQ ID NO: 64] (Non-cyclic GFR-binding peptide) | 36% | 14% | 14%
NDEGLECVPTEERPVQVRKIRIKPHQGQKKATVFLQHNK [SEQ ID NO: 79] (Non-cyclic GFR-binding peptide) | 27% | 21% | 21%
RNVQCRPTQLEPLPIVYYEIVRKKPEQLSNTLE (Non-cyclic GFR-binding peptide) [SEQ ID NO: 95] | 29% | 8% | 8%
RNVQCRPTQLEPLPIVYYEIVRKKPEQLSNTLEDHLA [SEQ ID NO: 66] (Non-cyclic GFR-binding peptide) | 38% | 21% | 21%
RNVQCRPTQLEPLPIVYYEIVRKKPEQLSNTLEDHLA [SEQ ID NO: 81] (Non-cyclic GFR-binding peptide) | 41% | 19% | 19%
SRVHHNAISTLYFDESSNVILKKYRGMSVVE (Non-cyclic GFR-binding peptide) [SEQ ID NO: 91] | 56% | 9% | 9%
TPTKMSPINMLYFNEKNNIIYGKIPGM (Non-cyclic GFR-binding peptide) [SEQ ID NO: 94] | 41% | 20% | 20%
TPTKMSPINMLYFNEKNNIIYGKIPGMVVD (Non-cyclic GFR-binding peptide) [SEQ ID NO: 76] | 55% | 15% | 15%
TQVQLEPLTLLYYDENEKVIEQLSNDMVVE (Non-cyclic GFR-binding peptide) [SEQ ID NO: 71] | 47% | 19% | 19%
VPARLSPISILYIDAANNVVYKQYEDM (Non-cyclic GFR-binding peptide) [SEQ ID NO: 74] | 51% | 10% | 10%
VPARLSPISILYIDAANNVVYKQYEDMVKS (Non-cyclic GFR-binding peptide) [SEQ ID NO: 93] | 44% | 8% | 8%

Sequence | p-Smad1/5/8 (%) [1] | pRB (%) ([2]; Table 4) | pRB (%) ([2]; Table 5)
VPARLSPISILYIDEMGVPTYKQYEEGMSVAE (Non-cyclic GFR-binding peptide) [SEQ ID NO: 83] | 33% | 9% | 9%
VPEKMSSLSILFFDENKNAALKVYPNMTVE (Non-cyclic GFR-binding peptide) [SEQ ID NO: 92] | 52% | 8% | 8%
VPEKMSSLSILFFDENKNVVLKVYPNMAVS (Non-cyclic GFR-binding peptide) [SEQ ID NO: 73] | 44% | 17% | 17%
VPQALNAISTLYFDDSSNVILKKYRNMAVS (Non-cyclic GFR-binding peptide) [SEQ ID NO: 72] | 48% | 11% | 11%
VPQALSPINMLYFNEKNQIIYGKIPFLQHNK (Non-cyclic GFR-binding peptide) [SEQ ID NO: 75] | 54% | 8% | 8%
VPQALSPISILFIRLKPHQGHLGEMSNMVVR (Non-cyclic GFR-binding peptide) [SEQ ID NO: 85] | 26% | 24% | 24%
VPQALSPISILFIVGRKPKVYKQYEMIVERS (Non-cyclic GFR-binding peptide) [SEQ ID NO: 89] | 41% | 18% | 18%
VPQALSPISILYIDDMGVPTYKQYEEGMSVAE (Non-cyclic GFR-binding peptide) [SEQ ID NO: 68] | 39% | 7% | 7%
VPTEESNITTQIMRIKPHQGQHIGEMSFLQH [SEQ ID NO: 69] (Non-cyclic GFR-binding peptide) | 32% | 23% | 23%
VPTEESNITTQIMRIKPHQGQHIGEMSFLQH [SEQ ID NO: 84] (Non-cyclic GFR-binding peptide) | 22% | 10% | 10%
VPTELSPISILFIRIKPHQGHLGEMSAAVVE (Non-cyclic GFR-binding peptide) [SEQ ID NO: 70] | 30% | 24% | 24%
VPTELSPISILFIVGGKPKVYKQYENMVVE (Non-cyclic GFR-binding peptide) [SEQ ID NO: 90] | 36% | 17% | 17%
VPTHHSAISMLYLELGGDKPLENYQFLQ (Non-cyclic GFR-binding peptide) [SEQ ID NO: 97] | 46% | 9% | 9%
VPTHHSAISTLYLELAGEKPLKNYQFLQHNK (Non-cyclic GFR-binding peptide) [SEQ ID NO: 96] | 47% | 7% | 7%
VPTKLSAISTLYLDLAREEPLKNYQEMVVE (Non-cyclic GFR-binding peptide) [SEQ ID NO: 87] | 38% | 16% | 16%
VPTKLSPISILYIDDMGVPTYKQYEEGMSVAE (Non-cyclic GFR-binding peptide) [SEQ ID NO: 67] | 40% | 9% | 9%
VPTKLSPISILYIDKMGVPTYKQYEEGMSVAE (Non-cyclic GFR-binding peptide) [SEQ ID NO: 82] | 35% | 16% | 16%
